# Test results published in US9920063B2, “Melampomagnolide B derivatives” (Board of Trustees of the University of Arkansas, priority 2013, dated 2018).
# Like-named read-outs stand apart in the source and are kept apart here.
# Columns and labels:
# AML 052308 cells = experiment: Antileukemic activity against AML 052308 cells in culture
# Protocol: For each compound, in vitro cell culture studies were performed in which a range of concentrations (0.25-20 μM) was tested for cytotoxicity against leukemia cell lines, primary leukemia specimens and normal bone marrow controls.
# COLO 205 = experiment: NCI human tumor cell line panel, Colon Cancer; type: cell-based
smiles,measurement,setting,value
C=C1C(=O)O[C@H]2[C@H]1CC/C(COC(=O)c1cc3ccccc3[nH]1)=C\CC[C@@]1(C)O[C@@H]21 [BS-1-28],CC50,DU-145,5200 nM
same,Percent Growth,"DU-145; DU-145, Log10 Concentration −4.0",−98%
same,Percent Growth,"DU-145; DU-145, Log10 Concentration −5.0",−95%
same,Percent Growth,"DU-145; DU-145, Log10 Concentration −6.0",63%
same,Percent Growth,"DU-145; DU-145, Log10 Concentration −7.0",98%
same,Percent Growth,"DU-145; DU-145, Log10 Concentration −8.0",91%
same,GI50,"DU-145; DU-145, NCI five dose",1210 nM
same,TGI,"DU-145; DU-145, NCI five dose",2.51E−6
same,CC50,HS 57BT,> 100000 nM
same,Percent Growth,"HS 57BT; HS 57BT, Log10 Concentration −4.0",−20%
same,Percent Growth,"HS 57BT; HS 57BT, Log10 Concentration −5.0",−5%
same,Percent Growth,"HS 57BT; HS 57BT, Log10 Concentration −6.0",78%
same,Percent Growth,"HS 57BT; HS 57BT, Log10 Concentration −7.0",84%
same,Percent Growth,"HS 57BT; HS 57BT, Log10 Concentration −8.0",47%
same,TGI,"HS 57BT; HS 57BT, NCI five dose",8.71E−6
same,CC50,786-0,9010 nM
same,Percent Growth,"786-0; 786-0, Log10 Concentration −4.0",−94%
same,Percent Growth,"786-0; 786-0, Log10 Concentration −5.0",−90%
same,Percent Growth,"786-0; 786-0, Log10 Concentration −6.0",11%
same,Percent Growth,"786-0; 786-0, Log10 Concentration −7.0",102%
same,Percent Growth,"786-0; 786-0, Log10 Concentration −8.0",96%
same,GI50,"786-0; 786-0, NCI five dose",371 nM
same,TGI,"786-0; 786-0, NCI five dose",1.28E−6
same,CC50,SK-MEL-28,5740 nM
same,Percent Growth,"SK-MEL-28; SK-MEL-28, Log10 Concentration −4.0",−93%
same,Percent Growth,"SK-MEL-28; SK-MEL-28, Log10 Concentration −5.0",47%
same,Percent Growth,"SK-MEL-28; SK-MEL-28, Log10 Concentration −6.0",67%
same,Percent Growth,"SK-MEL-28; SK-MEL-28, Log10 Concentration −7.0",101%
same,Percent Growth,"SK-MEL-28; SK-MEL-28, Log10 Concentration −8.0",90%
same,GI50,"SK-MEL-28; SK-MEL-28, NCI five dose",1280 nM
same,TGI,"SK-MEL-28; SK-MEL-28, NCI five dose",2.72E−6
same,CC50,SR,> 100000 nM
same,Percent Growth,"SR; SR, Log10 Concentration −4.0",−39%
same,Percent Growth,"SR; SR, Log10 Concentration −5.0",−28%
same,Percent Growth,"SR; SR, Log10 Concentration −6.0",53%
same,Percent Growth,"SR; SR, Log10 Concentration −7.0",98%
same,Percent Growth,"SR; SR, Log10 Concentration −8.0",162%
same,GI50,"SR; SR, NCI five dose",1080 nM
same,TGI,"SR; SR, NCI five dose",4.51E−6
same,CC50,SF-539,6530 nM
same,Percent Growth,"SF-539; SF-539, Log10 Concentration −4.0",−91%
same,Percent Growth,"SF-539; SF-539, Log10 Concentration −5.0",−91%
same,Percent Growth,"SF-539; SF-539, Log10 Concentration −6.0",70%
same,Percent Growth,"SF-539; SF-539, Log10 Concentration −7.0",93%
same,Percent Growth,"SF-539; SF-539, Log10 Concentration −8.0",90%
same,GI50,"SF-539; SF-539, NCI five dose",1320 nM
same,TGI,"SF-539; SF-539, NCI five dose",2.71E−4
same,CC50,A498,5630 nM
same,Percent Growth,"A498; A498, Log10 Concentration −4.0",−95%
same,Percent Growth,"A498; A498, Log10 Concentration −5.0",−99%
same,Percent Growth,"A498; A498, Log10 Concentration −6.0",97%
same,Percent Growth,"A498; A498, Log10 Concentration −7.0",102%
same,Percent Growth,"A498; A498, Log10 Concentration −8.0",110%
same,GI50,"A498; A498, NCI five dose",1740 nM
same,TGI,"A498; A498, NCI five dose",3.43E−6
same,CC50,OVCAR-5,8220 nM
same,Percent Growth,"OVCAR-5; OVCAR-5, Log10 Concentration −4.0",−88%
same,Percent Growth,"OVCAR-5; OVCAR-5, Log10 Concentration −5.0",−59%
same,Percent Growth,"OVCAR-5; OVCAR-5, Log10 Concentration −6.0",57%
same,Percent Growth,"OVCAR-5; OVCAR-5, Log10 Concentration −7.0",96%
same,Percent Growth,"OVCAR-5; OVCAR-5, Log10 Concentration −8.0",85%
same,GI50,"OVCAR-5; OVCAR-5, NCI five dose",1140 nM
same,TGI,"OVCAR-5; OVCAR-5, NCI five dose",3.07E−6
same,Fold more potent than parthenolide,AML 052308 cells; AML 052308 cells,around 3 fold
same,EC50,AML 052308 cells; AML 052308 cells in culture,2200 nM
same,CC50,K-562,> 100000 nM
same,Percent Growth,"K-562; K-562, Log10 Concentration −4.0",−24%
same,Percent Growth,"K-562; K-562, Log10 Concentration −5.0",−1%
same,Percent Growth,"K-562; K-562, Log10 Concentration −6.0",5%
same,Percent Growth,"K-562; K-562, Log10 Concentration −7.0",98%
same,Percent Growth,"K-562; K-562, Log10 Concentration −8.0",100%
same,GI50,"K-562; K-562, NCI five dose",327 nM
same,TGI,"K-562; K-562, NCI five dose",5.79E−6
same,Percent Growth,COLO 205; Log10 Concentration −4.0,−63%
same,Percent Growth,COLO 205; Log10 Concentration −5.0,−61%
same,Percent Growth,COLO 205; Log10 Concentration −6.0,39%
same,Percent Growth,COLO 205; Log10 Concentration −7.0,60%
same,Percent Growth,COLO 205; Log10 Concentration −8.0,27%
same,TGI,COLO 205; NCI five dose,2.44E−6
same,CC50,NCI-H522,6720 nM
same,Percent Growth,"NCI-H522; NCI-H522, Log10 Concentration −4.0",−72%
same,Percent Growth,"NCI-H522; NCI-H522, Log10 Concentration −5.0",−69%
same,Percent Growth,"NCI-H522; NCI-H522, Log10 Concentration −6.0",43%
same,Percent Growth,"NCI-H522; NCI-H522, Log10 Concentration −7.0",104%
same,Percent Growth,"NCI-H522; NCI-H522, Log10 Concentration −8.0",83%
same,GI50,"NCI-H522; NCI-H522, NCI five dose",757 nM
same,TGI,"NCI-H522; NCI-H522, NCI five dose",2.40E−6
same,CC50,KM12,15600 nM
same,Percent Growth,"KM12; KM12, Log10 Concentration −4.0",−82%
same,Percent Growth,"KM12; KM12, Log10 Concentration −5.0",−42%
same,Percent Growth,"KM12; KM12, Log10 Concentration −6.0",92%
same,Percent Growth,"KM12; KM12, Log10 Concentration −7.0",96%
same,Percent Growth,"KM12; KM12, Log10 Concentration −8.0",93%
same,GI50,"KM12; KM12, NCI five dose",2050 nM
same,TGI,"KM12; KM12, NCI five dose",4.84E−6
same,CC50,NCI-H23,7720 nM
same,Percent Growth,"NCI-H23; NCI-H23, Log10 Concentration −4.0",−84%
same,Percent Growth,"NCI-H23; NCI-H23, Log10 Concentration −5.0",−67%
same,Percent Growth,"NCI-H23; NCI-H23, Log10 Concentration −6.0",85%
same,Percent Growth,"NCI-H23; NCI-H23, Log10 Concentration −7.0",96%
same,Percent Growth,"NCI-H23; NCI-H23, Log10 Concentration −8.0",96%
same,GI50,"NCI-H23; NCI-H23, NCI five dose",1690 nM
same,TGI,"NCI-H23; NCI-H23, NCI five dose",3.62E−6
same,CC50,UO-31,5000 nM
same,Percent Growth,"UO-31; UO-31, Log10 Concentration −4.0",−89%
same,Percent Growth,"UO-31; UO-31, Log10 Concentration −5.0",−92%
same,Percent Growth,"UO-31; UO-31, Log10 Concentration −6.0",49%
same,Percent Growth,"UO-31; UO-31, Log10 Concentration −7.0",74%
same,Percent Growth,"UO-31; UO-31, Log10 Concentration −8.0",72%
same,GI50,"UO-31; UO-31, NCI five dose",887 nM
same,TGI,"UO-31; UO-31, NCI five dose",2.21E−6
same,CC50,HT29,5970 nM
same,Percent Growth,"HT29; HT29, Log10 Concentration −4.0",−80%
same,Percent Growth,"HT29; HT29, Log10 Concentration −5.0",−57%
same,Percent Growth,"HT29; HT29, Log10 Concentration −6.0",−25%
same,Percent Growth,"HT29; HT29, Log10 Concentration −7.0",109%
same,Percent Growth,"HT29; HT29, Log10 Concentration −8.0",103%
same,GI50,"HT29; HT29, NCI five dose",276 nM
same,TGI,"HT29; HT29, NCI five dose",6.51E−7
same,CC50,SK-MEL-2,7830 nM
same,Percent Growth,"SK-MEL-2; SK-MEL-2, Log10 Concentration −4.0",−88%
same,Percent Growth,"SK-MEL-2; SK-MEL-2, Log10 Concentration −5.0",−67%
same,Percent Growth,"SK-MEL-2; SK-MEL-2, Log10 Concentration −6.0",96%
same,Percent Growth,"SK-MEL-2; SK-MEL-2, Log10 Concentration −7.0",113%
same,Percent Growth,"SK-MEL-2; SK-MEL-2, Log10 Concentration −8.0",103%
same,GI50,"SK-MEL-2; SK-MEL-2, NCI five dose",1920 nM
same,TGI,"SK-MEL-2; SK-MEL-2, NCI five dose",3.88E−6
same,CC50,PC-3,6450 nM
same,Percent Growth,"PC-3; PC-3, Log10 Concentration −4.0",−94%
same,Percent Growth,"PC-3; PC-3, Log10 Concentration −5.0",−79%
same,Percent Growth,"PC-3; PC-3, Log10 Concentration −6.0",73%
same,Percent Growth,"PC-3; PC-3, Log10 Concentration −7.0",87%
same,Percent Growth,"PC-3; PC-3, Log10 Concentration −8.0",88%
same,GI50,"PC-3; PC-3, NCI five dose",1420 nM
same,TGI,"PC-3; PC-3, NCI five dose",3.62E−4
same,CC50,SNB-19,7330 nM
same,Percent Growth,"SNB-19; SNB-19, Log10 Concentration −4.0",−64%
same,Percent Growth,"SNB-19; SNB-19, Log10 Concentration −5.0",−70%
same,Percent Growth,"SNB-19; SNB-19, Log10 Concentration −6.0",81%
same,Percent Growth,"SNB-19; SNB-19, Log10 Concentration −7.0",92%
same,Percent Growth,"SNB-19; SNB-19, Log10 Concentration −8.0",57%
same,GI50,"SNB-19; SNB-19, NCI five dose",1600 nM
same,TGI,"SNB-19; SNB-19, NCI five dose",3.93E−6
